ChEMBL document CHEMBL1759928, “Synthesis and evaluation of library of betulin derivatives against the botulinum neurotoxin A protease” (Bioorg Med Chem Lett, 2011)
Calls of active or inactive are those of the source. No cut-off for these calls is given here.

Each compound was assayed against Botulinum neurotoxin type A (Clostridium botulinum, UniProt P0DPI0) (assay: Inhibition of Clostridium BoNT/A protease light chain). Settings: not given.
Sequence of Botulinum neurotoxin type A (P0DPI0 2-448 limits assumed): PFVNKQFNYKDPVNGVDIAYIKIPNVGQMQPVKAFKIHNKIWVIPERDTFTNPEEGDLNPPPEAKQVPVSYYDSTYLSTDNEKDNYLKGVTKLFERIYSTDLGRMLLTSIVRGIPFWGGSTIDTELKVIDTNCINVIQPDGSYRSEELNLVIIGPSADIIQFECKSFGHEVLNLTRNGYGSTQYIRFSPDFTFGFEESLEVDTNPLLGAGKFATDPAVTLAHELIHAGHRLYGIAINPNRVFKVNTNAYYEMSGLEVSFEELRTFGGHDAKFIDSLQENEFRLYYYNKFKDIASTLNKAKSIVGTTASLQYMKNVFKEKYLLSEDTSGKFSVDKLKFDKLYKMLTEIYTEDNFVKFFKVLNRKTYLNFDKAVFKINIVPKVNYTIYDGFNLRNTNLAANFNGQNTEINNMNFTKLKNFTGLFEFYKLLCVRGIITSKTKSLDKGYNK

Q: Which IC50 does the source give for `C=C(C)[C@@H]1CC[C@]2(C(=O)O)CC[C@]3(C)[C@H](CC[C@@H]4[C@@]5(C)CCC(=O)C(C)(C)[C@@H]5CC[C@]43C)[C@@H]12` [BETUNOLIC ACID] here?
A: The IC50 was under 100 µM.

Q: Which IC50 does the source give for `C=C(C)[C@@H]1CC[C@]2(COC(=O)CCC(=O)O)CC[C@]3(C)[C@H](CC[C@@H]4[C@@]5(C)CC[C@H](O)C(C)(C)[C@@H]5CC[C@]43C)[C@@H]12` here?
A: The IC50 was 1.5 µM.

Q: And the Ki?
A: Its Ki is 0.8 µM.

Q: Which IC50 does the source give for `C=C(C)[C@@H]1CC[C@]2(COC(=O)COc3cc(C(C)C)ccc3C)CC[C@]3(C)[C@H](CC[C@@H]4[C@@]5(C)CC[C@H](O)C(C)(C)[C@@H]5CC[C@]43C)[C@@H]12` here?
A: Its IC50 is 10 µM.

Q: And the Ki?
A: The Ki was 13.3 µM.

Q: How did the IC50 turn out when `C=C(C)[C@@H]1CC[C@]2(C(=O)OC)CC[C@]3(C)[C@H](CC[C@@H]4[C@@]5(C)CC[C@H](O)C(C)(C)[C@@H]5CC[C@]43C)[C@@H]12` [METHYL BETULINATE] was run?
A: Its IC50 is under 100 µM.

Q: How did the IC50 turn out when `C=C(C)[C@@H]1CC[C@]2(C(=O)O)CC[C@]3(C)[C@H](CC[C@@H]4[C@@]5(C)CC[C@H](O)C(C)(C)[C@@H]5CC[C@]43C)[C@@H]12` [BETULINIC ACID] was run?
A: The IC50 was 20 µM.

Q: What about the Ki of the same compound?
A: The Ki was 14.3 µM.

These compounds were tested against Botulinum neurotoxin type A (Clostridium botulinum) (UniProt P0DPI0). Settings: 0.67 to 18 uM.
Sequence of Botulinum neurotoxin type A (Clostridium botulinum) (P0DPI0 2-448 limits assumed): as above

Q: For `C=C(C)[C@@H]1CC[C@]2(COC(=O)CCC(=O)O)CC[C@]3(C)[C@H](CC[C@@H]4[C@@]5(C)CC[C@H](O)C(C)(C)[C@@H]5CC[C@]43C)[C@@H]12`, which inhibition is on record?
A: The inhibition was “Active”.
